In one assay the test system is PC-3 M-luc cells. The experiment in a line: PC-3 peritibial implant model of cancer bone metastasis. Conditions: oral gavage twice daily; score 0-4; vehicle-treated animals score 4. It is filed as in vivo, mouse. An excerpt: PC-3 Peritibial Implant Model of Cancer Bone Metastasis To evaluate in vivo anti-cancer activity of compounds of formula I, the PC-3 M-luc peritibial injection model of bone invasiveness model was employed. Briefly, PC-3 M-luc cells were obtained from Xenogen Corporation (Caliper Life Sciences) and expanded using MEM media modified with L-Glutamine (Cell Gro® #10-045-CV) supplemented with 10% fetal bovine serum, 1% penicillin-streptomycin-glutamine, 1% non-essential amino acids, and 1% MEM vitamins in 5% CO2 atmosphere at 37° C. Six to 7 week old male nude mice (Crl:NU-Foxn1nu) were obtained from Charles River Laboratories. Test mice were implanted peritibially on Day 0 with 1×10^6 cells/mouse (0.1 mL) using an insulin syringe with a fixed 28-gauge needle. The needle was inserted at the ankle between the tibia and fibula until the bevel of the needle reaches approximately half way between the knee and ankle Treatments began on Day 0. Animals were dosed by oral gavage twice daily for the study duration. All procedures carried out in this experiment were conducted in compliance with all the laws, regulations and guidelines of the National Institutes of Health (NIH). […] Lesions in the right hind limb were scored with values of 0, 1, 2, 3, or 4 based on a qualitative assessment of lesion size as defined by: 0: Normal Bone 1: Minimal lesions. […]

Another assay concerns M-NFS-60 cells. In words: M-NFS-60 cell proliferation assay. It is filed as cell-based. Conditions: 67 h incubation, resazurin. For orientation: The colour change of resazurin is a common sign of viable cells or microbes.
In assay [1] the target is T1, unphosphorylated c-KIT kinase (uKIT, Seq. ID no. 2) (Homo sapiens, UniProt P10721).
T1 construct: uKit with N-terminal GST fusion used for
In words: uKit kinase assay (pyruvate kinase/lactate dehydrogenase coupled). It is filed as biochemical. Particulars: ATP 2000 μM.
Description: In this assay, the oxidation of NADH (thus the decrease at A340 nm) was continuously monitored spectrophometrically. […] The inhibition reaction was started by mixing serial diluted test compound with the above reaction mixture. The absorption at 340 nm was monitored continuously for 4 hours at 30° C. on Synergy 2 plate reader (BioTech).

The target of assay [2] is T2, unphosphorylated PDGFRβ kinase (uPDGFRβ, Seq. ID No. 3) (Homo sapiens, UniProt P09619).
T2 construct: purchased DeCode
In words: Unphosphorylated PDGFRβ kinase assay (pyruvate kinase/lactate dehydrogenase coupled). It is filed as biochemical. Particulars: ATP 500 μM. The text has this:
Unphosyhorylated PDGFRβ (uPDGFRβkinase (Seq. ID No. 3) assay

The target in assay [3] is T3, phospho-FMS in THP-1 cells (Homo sapiens, UniProt P07333).
T3 construct: endogenous in cells; host or cells: THP-1 (ATCC TIB-202)
In words: Phospho-FMS ELISA assay in THP-1 cells. Particulars: 4 hours compound, M-CSF stimulated; read-out: pFMS inhibition in THP-1 cells. It is filed as cell-based.

In assay [4] the target is T4, unphosphorylated c-FMS kinase (uFMS, Seq. ID no. 1) (Homo sapiens, UniProt P07333).
T4 construct: purchased Millipore
T4 sequence (P07333 538-972): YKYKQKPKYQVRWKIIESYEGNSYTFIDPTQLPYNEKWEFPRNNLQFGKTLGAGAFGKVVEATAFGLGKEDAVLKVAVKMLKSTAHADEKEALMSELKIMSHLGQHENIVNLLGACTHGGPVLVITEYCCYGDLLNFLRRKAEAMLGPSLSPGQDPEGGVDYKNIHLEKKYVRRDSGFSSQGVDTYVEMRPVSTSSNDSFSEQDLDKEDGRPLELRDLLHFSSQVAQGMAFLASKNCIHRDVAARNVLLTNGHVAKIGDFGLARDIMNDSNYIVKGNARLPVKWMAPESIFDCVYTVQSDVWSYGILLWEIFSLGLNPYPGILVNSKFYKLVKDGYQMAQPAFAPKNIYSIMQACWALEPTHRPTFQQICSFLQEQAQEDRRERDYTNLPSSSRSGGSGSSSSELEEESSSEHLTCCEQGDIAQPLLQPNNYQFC
The experiment in a line: uFMS kinase assay (pyruvate kinase/lactate dehydrogenase coupled). It counts as biochemical. Conditions: ATP 500 μM.

In a further assay the test system is osteoclast precursors. The experiment in a line: Osteoclast tartrate-resistant acid phosphatase assay. It counts as cell-based. Particulars: Osteoclast; 7-14 days, RANKL and M-CSF.

This passage reports lesion score and IC50 results from US9309224B2 (Deciphera Pharmaceuticals, LLC, priority 2013, dated 2016).

T1 sequence (P10721 with tags, fused parts or gaps): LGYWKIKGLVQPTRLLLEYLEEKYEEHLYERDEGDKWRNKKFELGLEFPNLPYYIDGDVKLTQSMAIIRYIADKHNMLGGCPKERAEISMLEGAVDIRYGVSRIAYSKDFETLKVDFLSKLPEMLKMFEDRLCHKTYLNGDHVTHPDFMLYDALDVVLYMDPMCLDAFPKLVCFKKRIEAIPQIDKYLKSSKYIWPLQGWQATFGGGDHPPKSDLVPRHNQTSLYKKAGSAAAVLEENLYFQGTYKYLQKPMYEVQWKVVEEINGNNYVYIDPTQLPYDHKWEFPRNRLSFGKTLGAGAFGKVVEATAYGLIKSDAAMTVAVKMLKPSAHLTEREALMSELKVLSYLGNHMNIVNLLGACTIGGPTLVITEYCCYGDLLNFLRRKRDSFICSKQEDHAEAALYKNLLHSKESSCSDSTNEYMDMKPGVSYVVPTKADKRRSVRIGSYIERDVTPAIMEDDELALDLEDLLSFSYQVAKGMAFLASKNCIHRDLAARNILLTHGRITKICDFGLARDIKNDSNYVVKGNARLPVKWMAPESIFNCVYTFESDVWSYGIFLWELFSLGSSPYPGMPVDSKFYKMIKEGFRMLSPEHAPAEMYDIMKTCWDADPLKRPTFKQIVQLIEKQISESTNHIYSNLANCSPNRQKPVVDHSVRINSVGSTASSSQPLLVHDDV
T2 sequence (P09619 557-1105): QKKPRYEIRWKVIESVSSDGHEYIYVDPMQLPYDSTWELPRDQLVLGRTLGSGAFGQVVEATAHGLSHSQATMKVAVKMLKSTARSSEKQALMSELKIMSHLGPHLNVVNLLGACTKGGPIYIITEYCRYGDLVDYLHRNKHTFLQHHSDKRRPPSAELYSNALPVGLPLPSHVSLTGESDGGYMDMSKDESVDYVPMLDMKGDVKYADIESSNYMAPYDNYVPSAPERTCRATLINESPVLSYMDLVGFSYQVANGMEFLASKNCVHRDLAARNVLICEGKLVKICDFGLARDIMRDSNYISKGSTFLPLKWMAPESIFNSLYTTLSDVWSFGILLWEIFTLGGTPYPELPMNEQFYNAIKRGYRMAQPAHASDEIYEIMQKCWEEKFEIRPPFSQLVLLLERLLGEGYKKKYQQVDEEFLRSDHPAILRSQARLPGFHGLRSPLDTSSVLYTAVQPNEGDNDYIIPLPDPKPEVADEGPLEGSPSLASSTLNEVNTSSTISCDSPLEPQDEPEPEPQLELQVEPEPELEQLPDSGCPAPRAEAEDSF
T3 sequence (P07333 20-972): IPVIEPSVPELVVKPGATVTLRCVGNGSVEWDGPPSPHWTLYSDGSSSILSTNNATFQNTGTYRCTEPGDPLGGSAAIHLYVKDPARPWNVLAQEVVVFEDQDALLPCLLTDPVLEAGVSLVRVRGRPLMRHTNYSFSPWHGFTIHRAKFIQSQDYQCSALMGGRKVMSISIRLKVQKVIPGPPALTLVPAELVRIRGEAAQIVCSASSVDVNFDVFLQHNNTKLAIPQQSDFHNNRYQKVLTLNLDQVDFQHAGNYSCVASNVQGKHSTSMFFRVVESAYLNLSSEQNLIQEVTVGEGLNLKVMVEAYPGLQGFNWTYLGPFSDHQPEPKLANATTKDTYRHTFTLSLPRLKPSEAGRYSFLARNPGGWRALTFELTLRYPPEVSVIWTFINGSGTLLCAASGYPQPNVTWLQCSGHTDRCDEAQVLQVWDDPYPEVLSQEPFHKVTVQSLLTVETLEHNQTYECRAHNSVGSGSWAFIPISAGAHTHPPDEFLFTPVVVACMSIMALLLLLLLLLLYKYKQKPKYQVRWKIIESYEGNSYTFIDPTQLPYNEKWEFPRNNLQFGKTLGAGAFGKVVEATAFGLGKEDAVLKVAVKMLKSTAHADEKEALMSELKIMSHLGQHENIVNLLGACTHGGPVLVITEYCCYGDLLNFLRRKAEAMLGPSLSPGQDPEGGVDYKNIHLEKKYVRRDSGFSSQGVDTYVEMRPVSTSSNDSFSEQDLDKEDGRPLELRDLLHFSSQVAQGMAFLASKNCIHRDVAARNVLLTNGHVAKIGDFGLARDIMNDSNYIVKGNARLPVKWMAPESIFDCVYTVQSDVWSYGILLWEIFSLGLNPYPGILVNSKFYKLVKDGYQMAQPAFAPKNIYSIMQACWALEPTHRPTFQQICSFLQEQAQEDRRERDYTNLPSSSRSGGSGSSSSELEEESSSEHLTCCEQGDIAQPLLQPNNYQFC
Description for M-NFS-60 cells: M-NFS-60 Cell Proliferation Assay A serial dilution of test compound was dispensed into a 384-well black clear bottom plate (Corning, Corning, N.Y.). Two thousand five hundred cells were added per well in 50 μL complete growth medium. […] IC50 values were calculated from a series of percent inhibition values determined at a range of inhibitor concentrations using software routines as implemented in the GraphPad Prism software package.

Regarding `CN1CCN(C(=O)Nc2cc(Oc3ccc(NC(=O)NC(=O)C(C)(C)C)nc3)ccn2)CC1` [Example 45, 4-methyl-N-(4-((6-(3-pivaloylureido)pyridin-3-yl)oxy)pyridin-2-yl)piperazine-1-carboxamide], in the assay on PC-3 M-luc cells, the lesion score turned out to be 3. Also, the IC50 in the assay on M-NFS-60 cells was under 10 nM; in assay [1] it was 100 to 1000 nM; in assay [2], 100 to 1000 nM; in assay [3], under 10 nM; in assay [4] it was under 10 nM; in the assay on osteoclast precursors, under 10 nM.
